Reference: patent US11306102B2, “1,3-di-substituted ketene compound and application thereof” (BEBETTER MED INC., priority 2017, dated 2022)

What was measured:
PPARα = target: T1, PPARα (Homo sapiens, UniProt Q07869); assay: Hela cell/luciferase reporter gene method, PPARα agonist activity; format: cell-based; conditions: Hela cells, pPPRE3-TK-Luciferase reporter, 24 hrs incubation; read-out: agonistic activity on PPAα (EC50)
T1 construct: expressed in transfected cells; host or cells: Hela cells
T1 sequence (Q07869 1-468): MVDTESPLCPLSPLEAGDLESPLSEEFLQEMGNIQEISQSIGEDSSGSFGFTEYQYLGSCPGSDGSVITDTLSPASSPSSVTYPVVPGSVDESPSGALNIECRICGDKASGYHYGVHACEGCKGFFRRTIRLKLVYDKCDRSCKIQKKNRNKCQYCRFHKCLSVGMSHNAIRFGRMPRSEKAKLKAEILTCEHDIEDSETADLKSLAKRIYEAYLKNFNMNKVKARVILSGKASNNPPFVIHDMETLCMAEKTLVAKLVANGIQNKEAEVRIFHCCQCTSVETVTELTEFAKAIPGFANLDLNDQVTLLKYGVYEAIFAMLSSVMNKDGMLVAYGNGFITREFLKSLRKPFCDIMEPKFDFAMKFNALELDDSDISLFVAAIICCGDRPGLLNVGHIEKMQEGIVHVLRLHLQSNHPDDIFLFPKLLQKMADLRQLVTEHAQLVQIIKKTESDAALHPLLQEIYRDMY
Description: (§1) This example measures the biological activity of a PPAR agonist using the Hela cell/luciferase reporter gene method.
(§2) The target plasmids PCMV PPARα (Ampicillin+), PCMV PPARγ (Ampicillin+), PCMV PPARδ (Ampicillin+), and pPPRE3-TK-Luciferase (Ampicillin+) were introduced into DH5a competent cells by heat shock treatment, respectively. After being incubated for 1 hour at 37° C. with shaking (180 rpm), the cells were inoculated on LB agar solid medium containing antibiotic Ampicillin, and invertedly cultured at 37° C. for 12-16 hours. Then the monoclonal colony cultured on the medium was taken and inoculated into LB liquid medium for expanded culture. The desired plasmid was extracted from the resulting bacterial solution with a Plasmid Midi Kit (Qiagen; #12143). The plasmid obtained by centrifugation was suspended in TE buffer, and the plasmid concentration was measured and the mixture was stored at −20° C. Hela cells in the exponential phase were seeded in 6-well plates (8-10^5 cells/well), and after 6-8 hours of culture, the cells were transfected using Lipofectamine® 3000 Transfection Reagent (Invitrogen; #L3000015). A plasmid containing a PPAR binding site (peroxisome proliferator response element, PPRE) and a firefly luciferase gene (pPPRE3-TK-Luciferase) and PPAR expression vector were co-transfected into a Hela cell with a total amount of plasmid DNA of 2.5 ug (the mass ratio of each PPAR expression vector is pPPRE:PPARα=6:1, pPPRE:PPARδ=8:1, and pPPRE:PPARγ=2:1) to construct a drug screening cell model for PPAR agonists. PPAR was binded to the ligand and then binded to the peroxisome proliferator response element (PPRE), thereby initiating downstream firefly luciferase expression and its expression intensity was directly proportional to the degree of PPAR activation. The cells after 24 hours transfection were prepared into a cell suspension with a cell concentration of […] by a complete culture solution, and seeded into a 96-well plate with 100 ul per well. After overnight culture, the medium was changed to a medium containing 1% FBS. 10 mM candidate compound stock (1000×) were 4-fold diluted in DMSO for 8 points, then supplemented with medium containing 1% FBS to a final concentration of 50 uM (5×) by addition of 25 μl of 5× compound diluent to each well in different concentration gradients and incubated under 37° C., 5% CO2 incubator for 24 hrs. The 96-well plate was taken out and 30 μl of Bright-Glo™ Luciferase Assay System (Promega #E2620) was added to each well. The Luciferase luminescence intensity was measured by a SynergyH1 full-function microplate detector. The obtained data was used to calculate EC50 using GraphPad Prism 5.0 software to determine the biological activity of the compound.
(§3) The agonistic activity of the compounds synthesized in Examples 1-41 on PPAR is represented by EC50 (see Table 1). EC50 refers to the drug concentration at which the compound has a 50% increase in the agonistic activity of the measured PPAR. The compound numbers in Table 1 correspond to the compound numbers in Examples 1-41.

PPARγ = target: T2, PPARγ (Homo sapiens, UniProt P37231); assay: Hela cell/luciferase reporter gene method, PPARγ agonist activity; format: cell-based; conditions: Hela cells, pPPRE3-TK-Luciferase reporter, 24 hrs incubation; read-out: agonistic activity on PPARγ (EC50)
T2 construct: expressed in transfected cells; host or cells: Hela cells
T2 sequence (P37231 1-505): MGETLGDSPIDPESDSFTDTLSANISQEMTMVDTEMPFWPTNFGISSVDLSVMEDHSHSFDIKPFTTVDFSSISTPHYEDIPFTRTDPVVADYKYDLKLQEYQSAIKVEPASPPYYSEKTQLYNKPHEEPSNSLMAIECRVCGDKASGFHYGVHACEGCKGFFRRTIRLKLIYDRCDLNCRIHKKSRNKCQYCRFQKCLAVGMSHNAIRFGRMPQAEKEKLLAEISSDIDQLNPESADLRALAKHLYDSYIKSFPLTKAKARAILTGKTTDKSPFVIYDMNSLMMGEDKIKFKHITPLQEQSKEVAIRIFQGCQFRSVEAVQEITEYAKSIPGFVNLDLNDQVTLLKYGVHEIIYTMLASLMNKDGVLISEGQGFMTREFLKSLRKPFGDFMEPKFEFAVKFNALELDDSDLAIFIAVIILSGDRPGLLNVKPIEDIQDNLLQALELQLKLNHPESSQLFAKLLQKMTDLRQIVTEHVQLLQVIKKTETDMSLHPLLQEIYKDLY
Description: as §1, §2, §3

| SMILES | EC50 (PPARα) | EC50 (PPARγ) |
| --- | --- | --- |
| CSc1ccc(C(=O)/C=C/c2cc(C)c(OCC(=O)O)c(C)c2)c2occc12 [Compound 13, (E)-2-(2,6-dimethyl-4-(3-(4-(methylthio)benzofuran-7-yl)-3-oxoprop-1-en-1-yl)phenoxy)acetic acid] | 476 nM | 3410 nM |
| CSc1ccc2c(C)c(C(=O)/C=C/c3cc(C(C)C)c(OC(C)(C)C(=O)O)c(C(C)C)c3)oc2c1 [Compound 104, (E)-2-(2,6-diisopropyl-4-(3-(3-methyl-6-(methylthio)benzofuran-2-yl)-3-oxoprop-1-en-1-yl)phenoxy)-2-methylpropanoic acid] | 382 nM | – |
| CCOc1ccc2cc(C(=O)/C=C/c3cc(C)c(OC(C)(C)C(=O)O)c(C)c3)oc2c1 [Compound 44, (E)-2-(4-(3-(6-ethoxylbenzofuran-2-yl)-3-oxoprop-1-en-1-yl)-2,6-dimethylphenoxy)-2-methylpropanoic acid] | 7.67 nM | – |
| Cc1cc(/C=C/C(=O)c2cc3ccccc3o2)cc(C)c1OC(C)(C)C(=O)O [Compound 49, (E)-2-(4-(3-(benzofuran-2-yl)-3-oxoprop-1-en-1-yl)-2,6-dimethylphenoxy)-2-methylpropanoic acid] | 874 nM | – |
| COc1cc(/C=C/C(=O)c2cc3ccc(SC)cc3o2)cc(OC)c1OC(C)(C)C(=O)O [Compound 99, (E)-2-(2,6-dimethoxy-4-(3-(6-(methylthio)benzofuran-2-yl)-3-oxoprop-1-en-1-yl)phenoxy)-2-methylpropanoic acid] | 52.1 nM | – |
| Cc1cc(/C=C/C(=O)c2ccc(SCC(C)C)c3ccoc23)cc(C)c1OC(C)(C)C(=O)O [Compound 9, (E)-2-(4-(3-(4-(isobutylthio)benzofuran-7-yl)-3-oxoprop-1-en-1-yl)-2,6-dimethylphenoxy)-2-methylpropanoic acid] | 46.8 nM | – |
| CNc1ccc(C(=O)/C=C/c2cc(C)c(OC(C)(C)C(=O)O)c(C)c2)c2occc12 [Compound 2, (E)-2-(2,6-dimethyl-4-(3-(4-(methylamino)benzofuran-7-yl)-3-oxoprop-1-en-1-yl)phenoxy)-2-methylpropanoic acid] | 948 nM | – |
| Cc1cc(/C=C/C(=O)c2ccc3scnc3c2)cc(C)c1OC(C)(C)C(=O)O [Compound 39, (E)-2-(4-(3-(benzo[d]thiazol-5-yl)-3-oxoprop-1-en-1-yl)-2,6-dimethylphenoxy)-2-methylpropanoic acid] | 366 nM | – |
| COc1cc(/C=C/C(=O)c2oc3cc(SC)ccc3c2C)cc(OC)c1OC(C)(C)C(=O)O [Compound 102, (E)-2-(2,6-dimethoxy-4-(3-(3-methyl-6-(methylthio)benzofuran-2-yl)-3-oxoprop-1-en-1-yl)phenoxy)-2-methylpropanoic acid] | 191 nM | – |
| CSc1ccc2cc(C(=O)/C=C/c3cc(C)c(OCC(=O)O)c(C)c3)oc2c1 [Compound 57, (E)-2-(2,6-dimethyl-4-(3-(6-(methylthio)benzofuran-2-yl)-3-oxoprop-1-en-1-yl)phenoxy)acetic acid] | 1180 nM | – |
| CSc1ccc2cc(C(=O)/C=C/c3cc(C(C)C)c(OC(C)(C)C(=O)O)c(C(C)C)c3)oc2c1 [Compound 101, (E)-2-(2,6-diisopropyl-4-(3-(6-(methylthio)benzofuran-2-yl)-3-oxoprop-1-en-1-yl)phenoxy)-2-methylpropanoic acid] | 477 nM | – |

More lines, now with the values ahead:

| EC50 (PPARα) | EC50 (PPARγ) | SMILES |
| --- | --- | --- |
| 352 nM | – | CSc1cccc2cc(C(=O)/C=C/c3cc(C)c(OC(C)(C)C(=O)O)c(C)c3)oc12 [Compound 58, (E)-2-(2,6-dimethyl-4-(3-(7-(methylthio)benzofuran-2-yl)-3-oxoprop-1-en-1-yl)phenoxy)-2-methylpropanoic acid] |
| 121 nM | – | Cc1cc(/C=C/C(=O)c2oc3cc(SC(C)C)ccc3c2C)cc(C)c1OC(C)(C)C(=O)O [Compound 77, (E)-2-(4-(3-(6-(isopropylthio)-3-methylbenzofuran-2-yl)-3-oxoprop-1-en-1-yl)-2,6-dimethylphenoxy)-2-methylpropanoic acid] |
| 2440 nM | – | CSc1ccc2cc(C(=O)/C=C/c3cc(C)c(OC(C)(C)C(=O)O)c(C)c3)[nH]c2c1 [Compound 88, (E)-2-(2,6-dimethyl-4-(3-(6-(methylthio)-1H-indol-2-yl)-3-oxoprop-1-en-1-yl)phenoxy)-2 methylpropanoic acid] |
| 58.9 nM | – | Cc1cc(/C=C/C(=O)c2oc3cc(SCC(C)C)ccc3c2C)cc(C)c1OC(C)(C)C(=O)O [Compound 76, (E)-2-(4-(3-(6-(isobutylthio)-3-methylbenzofuran-2-yl)-3-oxoprop-1-en-1-yl)-2,6-dimethylphenoxy)-2-methylpropanoic acid] |
| 121 nM | – | CCCSc1ccc2c(C)c(C(=O)/C=C/c3cc(C)c(OC(C)(C)C(=O)O)c(C)c3)oc2c1 [Compound 75, (E)-2-(2,6-dimethyl-4-(3-(3-methyl-6-(propylthio)benzofuran-2-yl)-3-oxoprop-1-en-1-yl)phenoxy)-2-methylpropanoic acid] |
| 70.2 nM | – | CSc1ccc2c(C)c(C(=O)/C=C/c3cc(C)c(OC(C)(C)C(=O)O)c(C)c3)sc2c1 [Compound 82, (E)-2-(2,6-dimethyl-4-(3-(3-methyl-6-(methylthio)benzo[b]thiophen-2-yl)-3-oxoprop-1-en-1-yl)phenoxy)-2-methylpropanoic acid] |
| 3.8 nM | – | CSc1ccc2c(C(F)(F)F)c(C(=O)/C=C/c3cc(C)c(OC(C)(C)C(=O)O)c(C)c3)oc2c1 [Compound 73, (E)-2-(2,6-dimethyl-4-(3-(6-(methylthio)-3-(trifluoromethyl)benzofuran-2-yl)-3-oxoprop-1-en-1-yl)phenoxy)-2-methylpropanoic acid] |
| 165 nM | – | CSc1ccc(C(=O)/C=C/c2cc(C)c(OC(C)(C)C(=O)O)c(C)c2)c2oc(C)nc12 [Compound 20, (E)-2-(2,6-dimethyl-4-(3-(2-methyl-4-(methylthio)benzo[d]oxazol-7-yl)-3-oxoprop-1-en-1-yl)phenoxy)-2-methylpropanoic acid] |
| 41.9 nM | – | CCSc1ccc2c(C)c(C(=O)/C=C/c3cc(C)c(OC(C)(C)C(=O)O)c(C)c3)sc2c1 [Compound 94, (E)-2-(4-(3-(6-(ethylthio)-3-methylbenzo[b]thiophen-2-yl)-3-oxoprop-1-en-1-yl)-2,6-dimethylphenoxy)-2-methylpropanoic acid] |
| 105 nM | – | CSc1ccc2c(C(C)C)c(C(=O)/C=C/c3cc(C)c(OC(C)(C)C(=O)O)c(C)c3)oc2c1 [Compound 64, (E)-2-(4-(3-(3-isopropyl-6-(methylthio)benzofuran-2-yl)-3-oxoprop-1-en-1-yl)-2,6-dimethylphenoxy)-2-methylpropanoic acid] |
